Experimental data taken from patent US20240369544A1, “MULTIVALENT GLYCAN SCAFFOLDS AND METHODS OF USE THEREOF” (NovAb, Inc., priority 2021, published 2024).
Where no end group is shown, it is not given here. The star is where a group is joined. αGalNAc = CC(=O)N[C@@H]1[C@@H](O)[C@@H](O)[C@@H](CO)O[C@@H]1*; GalNAcα = O-linked α-N-acetylgalactosamine

Tests used:
[1] = tested on: O13 YSD cells (yeast cells expressing the lamprey O13 VLRB anti-H3 antibody on their surface); assay type: binding
Experimental: The O13 YSD cells were then washed 3 times with ice-cold TSM-BSA, then resuspended in 250 μL TMS-BSA to which 1 μL of PI was added to stain live/dead cells. 125 μL of each sample were used for flow cytometry measurements.

anti-H3 antibody = assay: Dissociation constant of monomer H3:anti-H3 antibody interaction; assay type: binding
[2] = tested on: Vicia Villosa lectin (VVL); assay: Lectin assay of dendrimers on magnetic beads, VVL; assay type: binding; settings: dendrimers coupled to streptavidin magnetic beads; lectin at 2 μg/mL pre-complexed with Avidin-HRP
Experimental: (§1) The Avidin-HRP was purchased from SouthemBiotech. […] 3 μL of dendrimer beads were used per assay.

[3] = target: T1, Peanut agglutinin lectin (PNA) (Arachis hypogaea, UniProt P02872); assay: Lectin assay of dendrimers on magnetic beads, PNA; assay type: binding; settings: dendrimers coupled to streptavidin magnetic beads; lectin at 2 μg/mL pre-complexed with Avidin-HRP
T1 sequence (P02872 whole entry, looked up): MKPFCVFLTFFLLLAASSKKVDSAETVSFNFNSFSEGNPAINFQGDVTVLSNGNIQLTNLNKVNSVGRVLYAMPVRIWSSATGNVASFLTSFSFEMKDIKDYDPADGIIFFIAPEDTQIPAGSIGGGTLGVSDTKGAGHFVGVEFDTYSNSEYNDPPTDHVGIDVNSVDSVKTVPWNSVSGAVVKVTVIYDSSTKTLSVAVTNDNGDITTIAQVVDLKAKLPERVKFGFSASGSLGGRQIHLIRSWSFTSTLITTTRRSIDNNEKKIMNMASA
Experimental: as §1

[4] = target: T2, Peanut agglutinin lectin (PNA), biotinylated, Vector Laboratories (Peanut, UniProt P02872 24-259, limits assumed, biotinylated (sites not given)); assay: lectin assay: dendrimer on streptavidin magnetic beads, biotinylated lectin pre-complexed with Avidin-HRP, TMB read-out
T2 construct: Lectin, described as specific for galactose as found in T-antigen; It was pre-complexed with Avidin-HRP for the assay
T2 sequence (looked up): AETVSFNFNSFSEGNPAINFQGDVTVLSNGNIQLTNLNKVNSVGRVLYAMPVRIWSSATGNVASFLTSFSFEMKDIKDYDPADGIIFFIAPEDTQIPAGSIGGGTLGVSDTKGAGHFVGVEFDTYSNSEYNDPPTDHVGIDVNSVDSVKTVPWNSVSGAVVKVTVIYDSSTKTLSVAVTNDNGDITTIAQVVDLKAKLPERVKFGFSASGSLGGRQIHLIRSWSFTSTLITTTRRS

Molecule: CC(=O)N[C@H]1C(O)O[C@H](CO)[C@@H](O[C@@H]2O[C@H](CO)[C@H](O)[C@H](O)[C@H]2O[C@@H]2O[C@@H](C)[C@@H](O)[C@@H](O)[C@@H]2O)[C@@H]1O (stereo partly drawn) [monomer H3, Blood group H type 2 trisaccharide]
- binding by O13 YSD cells (flow cytometry) [1]: not detected
- Kd (anti-H3 antibody): 2000 nM
- koff of monomer H3:anti-H3 antibody complex (anti-H3 antibody; from Kd=koff/kon with kon 10^6 M^−1 s^−1): 2 s⁻¹

Molecule: GP100120-dendrimers: Synthetic fibroin glycopeptide GP100120 (GAT*ES*RGAGAGA-NH2, GalNAc on Ser and Thr, SEQ ID NO:5) conjugated to 8-arm-PEG-NHS compound (GAT(αGalNAc)ES(αGalNAc)RGAGAGA-NH2; also: conjugated to 8-arm-PEG-NHS (dendrimer), site not given here)
- reactivity to VVL lectin [2]: positive
- reactivity to PNA lectin [3]: negative

B1: GP100120-dendrimer: synthetic fibroin glycopeptide GP100120 (GAT*ES*RGAGAGA-NH2) conjugated to 8-arm-PEG-NHS (7 arms NHS, 1 arm biotin) (peptide)
peptide: GAT(GalNAcα)ESRGAGAGA-NH2
modifications: not fully specified (residue 5); printed as GAT*ES*RGAGAGA-NH2; also: coupled through a primary amine to NHS arm of 8-arm PEG (7 NHS arms, 1 biotin arm), multivalent, copy number not given here
notes: The dendrimer was captured on streptavidin magnetic beads by its biotin; also called GP100121 glycopeptide dendrimer; GP100121 dendrimer
- binding result [4]: no binding (tested: 2 µg/mL)
